According to PubChem BioAssay (NCI):
“And” between values parts separate entries of the source, which are not always exact repeats. Equal values may be shown once.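 Protocol summary: plate cells (96-well), add compound at 5 concentrations, incubate 48 h, interpolate endpoints linearly. GI50 is the concentration that inhibits growth by half. TGI denotes the concentration required for complete inhibition of growth.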

What was measured:
Assay in all cases: NCI tumour cell line growth inhibition, 48 h
TK-10 renal = tested on: TK-10 renal
SK-OV-3 ovarian = tested on: SK-OV-3 ovarian
SF-295 CNS = tested on: SF-295 CNS
EKVX NSCLC = tested on: EKVX NSCLC
COLO 205 colon = tested on: COLO 205 colon
K-562 leukemia = tested on: K-562 leukemia
OVCAR-4 ovarian = tested on: OVCAR-4 ovarian
NCI-H226 lung = tested on: NCI-H226 lung
T-47D breast = tested on: T-47D breast
MOLT-4 leukemia = tested on: MOLT-4 leukemia

SMILES | TGI (TK-10 renal) | TGI (SK-OV-3 ovarian) | TGI (SF-295 CNS) | TGI (EKVX NSCLC) | TGI (COLO 205 colon) | TGI (K-562 leukemia) | TGI (OVCAR-4 ovarian) | TGI (NCI-H226 lung) | TGI (T-47D breast) | TGI (MOLT-4 leukemia) | GI50 (TK-10 renal) | GI50 (SK-OV-3 ovarian) | GI50 (SF-295 CNS) | GI50 (EKVX NSCLC) | GI50 (COLO 205 colon) | GI50 (K-562 leukemia) | GI50 (OVCAR-4 ovarian) | GI50 (T-47D breast) | GI50 (MOLT-4 leukemia) | GI50 (NCI-H226 lung)
CC(C)(C)c1cc(Br)c(O)c(CN(Cc2cc(C(C)(C)C)cc(Br)c2O)C2CCCCC2)c1 | 29.2 µM | 29.2 µM | 25.3 µM | 27.9 µM | 23.3 µM | 28.3 µM | 22.3 µM | 29.1 µM | 21.4 µM | 26 µM |  |  |  |  |  |  |  |  |  | 
COc1cc2c(c(OC)c1OC)-c1ccc(OC)c(=O)cc1[C@@H](NC(=O)c1ccccc1)CC2 | 30 µM and > 100 µM |  |  | > 100 µM | 0.0153 µM and 0.0138 µM |  | 30 µM and > 100 µM | 1.89 µM | > 100 µM | 30 µM and > 73.2 µM | 0.0806 µM | < 0.003 µM | 0.00623 µM | > 30 µM | 0.00399 µM | < 0.003 µM | 28.1 µM and 13.4 µM | > 30 µM | < 0.003 µM | 
Oc1ccccc1C(Sc1nc2ccccc2s1)Sc1nc2ccccc2s1 | > 100 µM | > 100 µM | > 100 µM | 77.9 µM | > 100 µM | > 100 µM | > 100 µM | > 100 µM | 73.5 µM | > 100 µM |  |  |  |  |  |  |  |  |  | 
O=C(NC1=CC(=O)c2ccccc2C1=O)c1ccccc1 | 5.38 µM | 14.3 µM | 7.73 µM | 7.63 µM | 3.31 µM | > 100 µM | 2.26 µM | 15.7 µM | 2.68 µM | 6.22 µM | 2.71 µM | 3.06 µM | 2 µM | 0.729 µM | 1.8 µM | 0.694 µM | 1.04 µM | 0.777 µM | 2.04 µM | 2.67 µM
COc1cccc2c1C(=O)c1c(O)c3c(c(O)c1C2=O)C[C@@](O)(C(C)=O)C[C@@H]3OC1OC(C)C(O)C(N)C1Br (stereo partly drawn) | 0.407 µM | 0.288 µM and 0.323 µM | 0.419 µM and 0.194 µM | 5.04 µM and 1.98 µM | 2.99 µM and 1.23 µM | 1.64 µM and 1.03 µM | 0.83 µM and 2.71 µM | 0.0714 µM and 0.0818 µM | 0.74 µM | 0.0266 µM |  | 0.0314 µM | 0.0159 µM | 0.195 µM | 0.219 µM | 0.0203 µM | 0.43 µM |  |  | 0.0134 µM
COC(=O)[C@@H](C)CNS(=O)(=O)N(c1cc(C(F)(F)F)cc(C(F)(F)F)c1)C1CCN(Cc2ccc(F)cc2)CC1 | 32.7 µM | 29 µM | 24.5 µM | 28.9 µM | 3.59 µM | 16 µM | 24.7 µM | 30.2 µM | 19.6 µM | 27.4 µM | 17.2 µM | 15.5 µM | 10.5 µM | 12.2 µM | 1.88 µM | 4.63 µM | 11.9 µM | 5.34 µM | 11.5 µM | 13.2 µM
CCOC(=O)c1c(C)n(Cc2ccc(Cl)cc2Cl)c2c1c(CN(C)C)c(O)c1[nH]cnc12 | 39.1 µM | 43.6 µM | 65 µM | 42.9 µM | 37.7 µM | 15.5 µM | 85.7 µM | 33.4 µM | 15.2 µM | 4.52 µM | 22.7 µM | 27.3 µM | 28.1 µM | 22.5 µM | 20.1 µM | 3.22 µM | 16.7 µM | 3.55 µM | 0.908 µM | 17.8 µM
NS(=O)(=O)c1ccc(NC2(C(=O)O)CCCC2)cc1 | > 100 µM | > 100 µM | > 100 µM | > 100 µM | > 100 µM | > 100 µM | > 100 µM | > 100 µM | > 100 µM | > 100 µM |  |  |  |  |  |  |  |  |  | 
O=C(N/N=C/c1ccc(Cl)cc1)c1ccc(C(F)(F)F)nc1Nc1cccc(C(F)(F)F)c1 | 16.8 µM | 7.54 µM | 4.62 µM | 14.1 µM | 4.31 µM | > 35.9 µM | 15.2 µM | 6.82 µM | 10.7 µM | 5.3 µM | 2.85 µM | 1.85 µM | 1.17 µM | 1.97 µM | 1.8 µM | 3.15 µM | 0.736 µM | 2.06 µM | 0.731 µM | 2.21 µM
